# From article PMC8662641, “Site-Specific Labeling of Endogenous Proteins Using CoLDR Chemistry” (Journal of the American Chemical Society, 2021)
# Test system: Mino cells
# Assay: Pull-down proteomics in Mino cells
# Assay type: cell-based, human
# Experimental: The cells were lysed and “clicked” with biotin-azide, and the samples were incubated at room temperature for 1 h. The samples were then precipitated with methanol–chloroform (1 mL of methanol, 250 μL of chloroform, 750 μL of water), washed with 1 mL of methanol, and air-dried. The samples were solubilized, bound to streptavidin agarose beads in PBS for 3 h at 25 °C. The beads were washed, centrifuged, resuspended in Tris 50 mM pH 8, and transferred to a clean Eppendorf tube. After this, the bound proteins were eluted by boiling with 5% SDS then reduced with DTT, alkylated with iodoacetamide, and digested with trypsin. The samples were run on LC/MS/MS. The detailed procedure is available in the Supplementary Methods Section. […]
# Pull-down proteomics experiments
# 1b or DMSO. The cells were spun down, washed with cold PBS and frozen. Then, each sample was lysed in 200 ul of RIPA for 15 minutes on ice and centrifuged at 20000 g at 4 °C. The protein in the supernatant was quantified using BCA. For each sample, […] of 1.65 mg/ml was prepared.
# At this point, 5 ul of 5 mM biotin azide and 9 ul of 100 mM CuSO4:THPTA complex were added.
# The click reaction was initiated by the addition of 7.5 ul of 150 mM sodium ascorbate, and the samples are incubated at room temperature for 1 hour. The samples were then precipitated with methanol: chloroform (1 ml methanol, 250 l chloroform, 750 l water), washed with 1 ml of methanol, and air dried. The dry pellet was resuspended in 1.2% SDS in PBS (250 l), sonicated as described before, and heated to 90 °C for 5 minutes. The samples were then diluted to 1.5 ml with PBS, and 50 ul of streptavidin agarose beads, prewashed with 0.2% SDS in PBS, were added, followed by 3 hour incubation at room temperature. Following the incubation, the beads were centrifuged 2 minutes 2000 g, and washed 4 times, with the following buffers (4 ml in each wash):
# 2% SDS; 0.1% sodium deoxycholate, 1% Triton X-100, 0.5 M NaCl, 1 mM EDTA, 50 mM HEPES pH = 7.5; 0.25 M NaCl, 0.5% IGEPAL, 0.5% sodium deoxycholate, 1 mM EDTA, 10 mM Tris pH = 8.1; 50 mM Tris pH = 7.4, 50 mM NaCl. The beads were then resuspended in Tris 50 mM pH = 8 and transferred to a clean Eppendorf tube.
# At this point, the buffer was removed to leave a volume of 100 ul, and 100 ul of Tris 50 mM pH 8 + 10% SDS was added, and the samples were heated to 96 °C for 5 minutes. The samples were then centrifuged and the denatured, eluted proteins were transferred to new tubes. Then, 7.5 ul of 0.1 M DTT was added, and samples were incubated at 65 °C for 45 minutes. After the samples had cooled, 7.5 ul of iodoacetamide (0.2 M) were added, and the samples were incubated in the dark for 40 minutes at room temperature. At this point 1/10 volume of 12% phosphoric acid was added, and the samples were diluted 6-fold with 90% methanol + 50 mM ammonium bicarbonate. The samples were then loaded on s-trap micro columns (Protify) and the columns […]
# were washed 3 times with 150 ul of 90% methanol + 50 mM ammonium bicarbonate. Then, 20 ul of 0.05 g/l of trypsin in 50 mM ammonium bicarbonate were added to the columns, and the samples were incubated at 47 °C for 90 minutes. Then 40 ul of 50 mM ammonium bicarbonate was added, followed by centrifugation and addition of 1 ul of 0.5 g/l trypsin to the eluate, which was incubated at 37C overnight. The column itself was then eluted using 40 ul of 0.2% formic acid and 40 ul 0.2% formic acid in 50% acetonitrile into a separate tube, which was kept at 4 °C. The two eluates were then combined and evaporated before running on LC/MS/MS.
# Running samples on LC/MS/MS:
# ULC/MS grade solvents were used for all chromatographic steps. Each sample was loaded using split-less nano-Ultra Performance Liquid Chromatography (10 kpsi nanoAcquity; Waters, Milford, MA, USA). The mobile phase was: A) H2O + 0.1% formic acid and B) acetonitrile + 0.1% formic acid. Desalting of the samples was performed online using a reversed-phase Symmetry C18 […]
compound,measurement,setting,value
C#CCCNC(=O)C(=C)CN1CCC[C@@H](n2nc(-c3ccc(Oc4ccccc4)cc3)c3c(N)ncnc32)C1 [1b],Log2(fold enrichment),"ACACA_HUMAN group, 1b relative to pretreatment by ibrutinib",0.4315
same,Log2(fold enrichment),"ACACA_HUMAN group, 1b relative to treatment with DMSO",-0.2749
same,Log2(fold enrichment),"ACTG_HUMAN group, 1b relative to pretreatment by ibrutinib",0.2725
same,Log2(fold enrichment),"ACTG_HUMAN group, 1b relative to treatment with DMSO",0.2915
same,Log2(fold enrichment),"ALDOA_HUMAN, 1b relative to pretreatment by ibrutinib",0.4926
same,Log2(fold enrichment),"ALDOA_HUMAN, 1b relative to treatment with DMSO",0.06327
same,Log2(fold enrichment),"ANXA2_HUMAN group, 1b relative to pretreatment by ibrutinib",-0.9011
same,Log2(fold enrichment),"ANXA2_HUMAN group, 1b relative to treatment with DMSO",0.8548
same,Log2(fold enrichment),"B3GT4_HUMAN, 1b relative to pretreatment by ibrutinib",0.1405
same,Log2(fold enrichment),"B3GT4_HUMAN, 1b relative to treatment with DMSO",2.2518
same,Log2(fold enrichment),"CAD15_HUMAN, 1b relative to pretreatment by ibrutinib",-2.753
same,Log2(fold enrichment),"CAD15_HUMAN, 1b relative to treatment with DMSO",-0.7397
same,Log2(fold enrichment),"CRERF_HUMAN, 1b relative to pretreatment by ibrutinib",-0.1083
same,Log2(fold enrichment),"CRERF_HUMAN, 1b relative to treatment with DMSO",-0.06839
same,Log2(fold enrichment),"CX062_HUMAN, 1b relative to pretreatment by ibrutinib",3.426
same,Log2(fold enrichment),"CX062_HUMAN, 1b relative to treatment with DMSO",2.336
same,Log2(fold enrichment),"CYB5B_HUMAN, 1b relative to pretreatment by ibrutinib",4.3203
same,Log2(fold enrichment),"CYB5B_HUMAN, 1b relative to treatment with DMSO",3.916
same,Log2(fold enrichment),"CYFP1_HUMAN, 1b relative to pretreatment by ibrutinib",5.178
same,Log2(fold enrichment),"CYFP1_HUMAN, 1b relative to treatment with DMSO",4.841
same,Log2(fold enrichment),"DCD_HUMAN, 1b relative to pretreatment by ibrutinib",0.833
same,Log2(fold enrichment),"DCD_HUMAN, 1b relative to treatment with DMSO",3.261
same,Log2(fold enrichment),"DESP_HUMAN, 1b relative to pretreatment by ibrutinib",-0.03598
same,Log2(fold enrichment),"DESP_HUMAN, 1b relative to treatment with DMSO",1.065
same,Log2(fold enrichment),"DSC1_HUMAN, 1b relative to pretreatment by ibrutinib",-0.2037
same,Log2(fold enrichment),"DSC1_HUMAN, 1b relative to treatment with DMSO",0.5233
same,Log2(fold enrichment),"DSG1_HUMAN, 1b relative to pretreatment by ibrutinib",-0.7862
same,Log2(fold enrichment),"DSG1_HUMAN, 1b relative to treatment with DMSO",1.658
same,Log2(fold enrichment),"EF1A3_HUMAN group, 1b relative to pretreatment by ibrutinib",0.1605
same,Log2(fold enrichment),"EF1A3_HUMAN group, 1b relative to treatment with DMSO",0.3209
same,Log2(fold enrichment),"ELAF_HUMAN, 1b relative to pretreatment by ibrutinib",-0.07576
same,Log2(fold enrichment),"ELAF_HUMAN, 1b relative to treatment with DMSO",3.288
same,Log2(fold enrichment),"ENOA_HUMAN, 1b relative to pretreatment by ibrutinib",0.1924
same,Log2(fold enrichment),"ENOA_HUMAN, 1b relative to treatment with DMSO",0.2037
same,Log2(fold enrichment),"EP400_HUMAN, 1b relative to pretreatment by ibrutinib",1.834
same,Log2(fold enrichment),"EP400_HUMAN, 1b relative to treatment with DMSO",-0.06967
same,Log2(fold enrichment),"FABP5_HUMAN, 1b relative to pretreatment by ibrutinib",-0.02939
same,Log2(fold enrichment),"FABP5_HUMAN, 1b relative to treatment with DMSO",1.253
same,Log2(fold enrichment),"G3P_HUMAN, 1b relative to pretreatment by ibrutinib",0.2104
same,Log2(fold enrichment),"G3P_HUMAN, 1b relative to treatment with DMSO",0.2112
same,Log2(fold enrichment),"GRAH_HUMAN, 1b relative to pretreatment by ibrutinib",-0.3838
same,Log2(fold enrichment),"GRAH_HUMAN, 1b relative to treatment with DMSO",1.151
same,Log2(fold enrichment),"GSTP1_HUMAN, 1b relative to pretreatment by ibrutinib",0.8097
same,Log2(fold enrichment),"GSTP1_HUMAN, 1b relative to treatment with DMSO",1.004
same,Log2(fold enrichment),"HS90B_HUMAN group, 1b relative to pretreatment by ibrutinib",0.4589
same,Log2(fold enrichment),"HS90B_HUMAN group, 1b relative to treatment with DMSO",0.7364
same,Log2(fold enrichment),"HSP7C_HUMAN, 1b relative to pretreatment by ibrutinib",0.6921
same,Log2(fold enrichment),"HSP7C_HUMAN, 1b relative to treatment with DMSO",0.6391
same,Log2(fold enrichment),"K2C6B_HUMAN, 1b relative to pretreatment by ibrutinib",-0.8867
same,Log2(fold enrichment),"K2C6B_HUMAN, 1b relative to treatment with DMSO",0.6152
same,Log2(fold enrichment),"KPYM_HUMAN, 1b relative to pretreatment by ibrutinib",0.1731
same,Log2(fold enrichment),"KPYM_HUMAN, 1b relative to treatment with DMSO",1.135
same,Log2(fold enrichment),"LDHA_HUMAN, 1b relative to pretreatment by ibrutinib",0.2369
same,Log2(fold enrichment),"LDHA_HUMAN, 1b relative to treatment with DMSO",-0.2458
same,Log2(fold enrichment),"LEG9C_HUMAN group, 1b relative to pretreatment by ibrutinib",1.455
same,Log2(fold enrichment),"LEG9C_HUMAN group, 1b relative to treatment with DMSO",-0.9819
same,Log2(fold enrichment),"MCCA_HUMAN, 1b relative to pretreatment by ibrutinib",0.4599
same,Log2(fold enrichment),"MCCA_HUMAN, 1b relative to treatment with DMSO",-0.3745
same,Log2(fold enrichment),"MMRN2_HUMAN, 1b relative to pretreatment by ibrutinib",-0.0371
same,Log2(fold enrichment),"MMRN2_HUMAN, 1b relative to treatment with DMSO",0.08276
same,off-targets found in pull-down proteomics,"Mino cells, 100 nM 1b","BLK, MCAT, and ADK"
same,Log2(fold enrichment),"NEUM_HUMAN, 1b relative to pretreatment by ibrutinib",2
same,Log2(fold enrichment),"NEUM_HUMAN, 1b relative to treatment with DMSO",0.3281
same,Log2(fold enrichment),"NPM_HUMAN, 1b relative to pretreatment by ibrutinib",1.109
same,Log2(fold enrichment),"NPM_HUMAN, 1b relative to treatment with DMSO",0.4515
same,Log2(fold enrichment),"PIP_HUMAN, 1b relative to pretreatment by ibrutinib",0.6558
same,Log2(fold enrichment),"PIP_HUMAN, 1b relative to treatment with DMSO",-0.01924
same,Log2(fold enrichment),"PLAK_HUMAN, 1b relative to pretreatment by ibrutinib",0.152
same,Log2(fold enrichment),"PLAK_HUMAN, 1b relative to treatment with DMSO",1.616
same,Log2(fold enrichment),"PRDX2_HUMAN group, 1b relative to pretreatment by ibrutinib",-0.09254
same,Log2(fold enrichment),"PRDX2_HUMAN group, 1b relative to treatment with DMSO",-0.2676
same,Log2(fold enrichment),"REL_HUMAN, 1b relative to pretreatment by ibrutinib",1.348
same,Log2(fold enrichment),"REL_HUMAN, 1b relative to treatment with DMSO",-0.2147
same,Log2(fold enrichment),"RL13_HUMAN, 1b relative to pretreatment by ibrutinib",0.7491
same,Log2(fold enrichment),"RL13_HUMAN, 1b relative to treatment with DMSO",0.2396
same,Log2(fold enrichment),"RL15_HUMAN, 1b relative to pretreatment by ibrutinib",0.2388
same,Log2(fold enrichment),"RL15_HUMAN, 1b relative to treatment with DMSO",0.9031
same,Log2(fold enrichment),"RL18_HUMAN, 1b relative to pretreatment by ibrutinib",0.6086
same,Log2(fold enrichment),"RL18_HUMAN, 1b relative to treatment with DMSO",-0.373
same,Log2(fold enrichment),"RL40_HUMAN group, 1b relative to pretreatment by ibrutinib",-1.022
same,Log2(fold enrichment),"RL40_HUMAN group, 1b relative to treatment with DMSO",0.218
same,Log2(fold enrichment),"S10A8_HUMAN, 1b relative to pretreatment by ibrutinib",0.2414
same,Log2(fold enrichment),"S10A8_HUMAN, 1b relative to treatment with DMSO",0.2312
same,Log2(fold enrichment),"S10A9_HUMAN, 1b relative to pretreatment by ibrutinib",0.07875
same,Log2(fold enrichment),"S10A9_HUMAN, 1b relative to treatment with DMSO",2.006
same,Log2(fold enrichment),"SYFM_HUMAN, 1b relative to pretreatment by ibrutinib",0.9276
same,Log2(fold enrichment),"SYFM_HUMAN, 1b relative to treatment with DMSO",-1.069
same,Log2(fold enrichment),"TBA1B_HUMAN group, 1b relative to pretreatment by ibrutinib",0.8267
same,Log2(fold enrichment),"TBA1B_HUMAN group, 1b relative to treatment with DMSO",1.164
same,Log2(fold enrichment),"TBB5_HUMAN group, 1b relative to pretreatment by ibrutinib",1.023
same,Log2(fold enrichment),"TBB5_HUMAN group, 1b relative to treatment with DMSO",0.6602
same,Log2(fold enrichment),"TGM3_HUMAN, 1b relative to pretreatment by ibrutinib",-0.2702
same,Log2(fold enrichment),"TGM3_HUMAN, 1b relative to treatment with DMSO",0.4648
same,Log2(fold enrichment),"THIO_HUMAN, 1b relative to pretreatment by ibrutinib",0.6478
same,Log2(fold enrichment),"THIO_HUMAN, 1b relative to treatment with DMSO",0.5583
same,Log2(fold enrichment),"TPIS_HUMAN, 1b relative to pretreatment by ibrutinib",1.866
same,Log2(fold enrichment),"TPIS_HUMAN, 1b relative to treatment with DMSO",2.762
same,Log2(fold enrichment),"VDAC2_HUMAN, 1b relative to pretreatment by ibrutinib",0.298
same,Log2(fold enrichment),"VDAC2_HUMAN, 1b relative to treatment with DMSO",2.794
same,Log2(fold enrichment),"ZNT4_HUMAN, 1b relative to pretreatment by ibrutinib",0.6391
same,Log2(fold enrichment),"ZNT4_HUMAN, 1b relative to treatment with DMSO",0.7876
